Molecular target: T1, BaF3 BRAF-KIAA1549 fusion cells (Homo sapiens, UniProt P15056)
T1 construct: The BRAF-KIAA1549 fusion mutant was subcloned into pMXs-IRES-Blasticidin (RTV-016, Cell Biolabs, San Diego, CA); fused on or other part: Q9HCM3 (UPF0606 protein KIAA1549)
Assay: BaF3 BRAF-KIAA1549 fusion cell proliferation assay (CellTiterGlo)
Assay type: cell-based
Conditions: 96 hours incubation, potency code
Experimental: Retroviral Production: The BRAF-KIAA1549 fusion mutant was subcloned into pMXs-IRES-Blasticidin (RTV-016, Cell Biolabs, San Diego, CA). Retrovirus was produced by transfection of HEK 293T cells with the retroviral BRAF mutant expression vector pMXs-IRES-Blasticidin (RTV-016, Cell Biolabs), pCMV-Gag-Pol vector and pCMV-VSV-G-Envelope vector. Briefly, HEK 293T cells were plated in Poly-D-lysine coated 6-well plate (2.5×10^5 cells per well) and incubated overnight. The next day, retroviral plasmids (1 μg of BRAF-KIAA fusion mutant, 0.32 μg of pCMV-Gag-Pol and 0.165 μg pCMV-VSV-G) were mixed in 300 μL of Optimem (31985, Life Technologies). The mixture was incubated at room temperature for 5 minutes and then added to Optimem containing transfection reagent Lipofectamine (11668, Invitrogen) and incubated for 20 minutes. The mixture was then added dropwise to HEK 293T cells. The next day the medium was replaced with fresh culture medium and retrovirus was harvested at 24 hours.
Generation of BRAF-KIAA1549 fusion stable cell line: BaF3 cells were plated in V-bottom 96 well plate (COSTAR #3894) in 80 μL of RPMI/10% FBS and 0.01 ng/ml mouse IL-3; supplemented with 8 μg/mL polybrene (4×10^4 cells/well). Cells were transduced with 20 μL of BRAF-KIAA1549 fusion viral supernatant by centrifuging for 30 minutes at 1000 rpm. Cells were placed in a 37° C. incubator overnight. Next day 100 μL of RPMI/10% FBS and 0.01 ng/ml mouse IL-3 was added. After 24 hours, 100 μL of cells were transferred to a 24 well plate containing 900 μL of RPMI/10% FBS and 15 μg/mL Blasticidin. Contents of the 24 well plate were sampled for cell viability via CellTiterGlo (Promega) over a 2-week period.
Assay for cell proliferation: BaF3 BRAF-KIAA1549 fusion cells were resuspended at 1.5×10^5c/mL in RPMI containing 10% Heat Inactivated FBS, 1% L-glutamine and dispensed in duplicate ([…]) into 384 well plates. To determine the effect of compound on cell proliferation, BaF3 BRAF-KIAA1549 fusion cells were incubated for 96 hours in the presence of vehicle control (DMSO) or compound at varying concentrations. Inhibition of cell growth was determined by luminescent quantification (Envision by Perkin Elmer) of intracellular ATP content using CellTiterGlo (Promega), according to the protocol provided by the manufacturer. To determine the IC50 values, the vehicle-treated cells were normalized as viable cells and analyzed using the CDD Vault, Collaborative Drug Discovery, Burlingame, CA (the Levenberg-Marquardt algorithm; Levenberg, K., […]; Marquardt, D., 1963).
Tables A1 and A2 assign each compound a code for potency in the BaF3 BRAF-KIAA1549 fusion cell proliferation assay: A, B, C, or D. According to the code, A represents an IC50 value <20 nM; B represents an IC50 value ≥20 nM and <100 nM; C represents an IC50 value ≥100 nM and <500 nM; and D represents an IC50 value ≥500 nM.

T1 sequence (P15056 whole entry, change not shown, the tested form may be a part): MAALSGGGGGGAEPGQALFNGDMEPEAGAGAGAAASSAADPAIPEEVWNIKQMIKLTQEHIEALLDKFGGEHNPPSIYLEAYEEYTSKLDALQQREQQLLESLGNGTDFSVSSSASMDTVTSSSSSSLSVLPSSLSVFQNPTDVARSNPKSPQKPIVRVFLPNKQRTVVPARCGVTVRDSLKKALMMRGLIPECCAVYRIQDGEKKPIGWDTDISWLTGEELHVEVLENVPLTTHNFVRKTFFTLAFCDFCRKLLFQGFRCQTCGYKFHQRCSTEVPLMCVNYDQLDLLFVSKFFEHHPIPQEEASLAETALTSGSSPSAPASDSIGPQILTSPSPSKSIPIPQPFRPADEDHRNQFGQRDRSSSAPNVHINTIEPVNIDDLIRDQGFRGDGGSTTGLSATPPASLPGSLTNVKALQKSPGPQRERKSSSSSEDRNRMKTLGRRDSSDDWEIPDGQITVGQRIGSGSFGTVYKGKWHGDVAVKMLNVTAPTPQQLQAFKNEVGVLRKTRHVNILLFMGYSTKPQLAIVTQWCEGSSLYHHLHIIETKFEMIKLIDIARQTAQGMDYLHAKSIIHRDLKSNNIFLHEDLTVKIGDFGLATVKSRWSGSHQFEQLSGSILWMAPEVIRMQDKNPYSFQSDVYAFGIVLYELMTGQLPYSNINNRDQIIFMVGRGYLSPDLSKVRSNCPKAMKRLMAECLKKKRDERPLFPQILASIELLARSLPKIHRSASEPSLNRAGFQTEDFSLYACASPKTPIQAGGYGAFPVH

Row | GI50 [nM] | SMILES
1 | < 20 | Cc1ccc(NC(=O)c2cc(C(F)(F)F)c(OC3COC3)cn2)cc1Nc1ncccc1-c1ncnc2[nH]cnc12 [IA-95, N-(3-(3-(9H-purin-6-yl)pyridin-2-ylamino)-4-methylphenyl)-5-(oxetan-3-yloxy)-4-(trifluoromethyl)picolinamide]
2 | < 20 | Cc1ccc(C(=O)Nc2cncc(C(F)(F)F)c2)cc1Nc1ncccc1-c1ncnc2[nH]cnc12 [Compound I-30, 3-((3-(9H-purin-6-yl)pyridin-2-yl)amino)-4-methyl-N-(5-(trifluoromethyl)pyridin-3-yl)benzamide]
3 | < 20 | Cc1ccc(NC(=O)CC2CCC(F)(F)CC2)cc1Nc1ncccc1-c1ncnc2[nH]cnc12 [Compound I-14, N-(3-(3-(9H-purin-6-yl)pyridin-2-ylamino)-4-methylphenyl)-2-(4,4-difluorocyclohexyl)acetamide]
4 | ≥ 500 | Cc1ccc(NC(=O)c2cc(C#N)c(Cl)cn2)cc1Nc1ncccc1-c1ncnc2[nH]cnc12 [Compound I-39, N-(3-((3-(9H-purin-6-yl)pyridin-2-yl)amino)-4-methylphenyl)-5-chloro-4-cyanopicolinamide]
5 | ≥ 500 | Cc1ccc(NC(=O)c2cnc(C)c(C#N)c2)cc1Nc1ncccc1-c1ncnc2[nH]cnc12 [Compound I-48, N-(3-(3-(9H-purin-6-yl)pyridin-2-ylamino)-4-methylphenyl)-5-cyano-6-methylnicotinamide]
6 | 20 to 100 | Cc1ccc(NC(=O)c2ccc(Cl)c(OC(F)(F)F)c2)cc1Nc1ncccc1-c1ncnc2[nH]cnc12 [Compound I-69, N-(3-((3-(9H-purin-6-yl)pyridin-2-yl)amino)-4-methylphenyl)-4-chloro-3-(trifluoromethoxy)benzamide]
7 | 20 to 100 | Cc1ncc(NC(=O)c2ccnc(C3(F)CC3)c2)cc1Nc1ncccc1-c1ncnc2[nH]cnc12 [Compound I-61, N-(5-((3-(9H-purin-6-yl)pyridin-2-yl)amino)-6-methylpyridin-3-yl)-2-(1-fluorocyclopropyl)isonicotinamide]
8 | < 20 | Cc1ccc(NC(=O)c2cccc(N(C)C)c2)cc1Nc1ncccc1-c1ncnc2[nH]cnc12 [Compound I-80, N-(3-((3-(9H-purin-6-yl)pyridin-2-yl)amino)-4-methylphenyl)-3-(dimethylamino)benzamide]
9 | < 20 | Cc1ccc(NC(=O)c2cc(C(F)(F)F)c(C)cn2)cc1Nc1ncccc1-c1ncnc2[nH]cnc12 [IA-114, N-(3-((3-(9H-purin-6-yl)pyridin-2-yl)amino)-4-methylphenyl)-5-methyl-4-(trifluoromethyl)picolinamide]
10 | < 20 | Cc1ccc(NC(=O)c2ccc(Cl)c(C#N)c2)cc1Nc1ncccc1-c1ncnc2[nH]cnc12 [Compound I-22, N-(3-((3-(9H-purin-6-yl)pyridin-2-yl)amino)-4-methylphenyl)-4-chloro-3-cyanobenzamide]
11 | ≥ 500 | Cc1ccc(NC(=O)CC2CCN(C)CCO2)cc1Nc1ncccc1-c1ncnc2[nH]cnc12 (centres unmarked) [IA-136, N-(3-(3-(9H-purin-6-yl)pyridin-2-ylamino)-4-methylphenyl)-2-(4-methyl-1,4-oxazepan-7-yl)acetamide]
12 | 20 to 100 | COc1cnc(C(=O)Nc2ccc(C)c(Nc3ncccc3-c3ncnc4[nH]cnc34)c2)cc1C(F)(F)F [IA-100, N-(3-(3-(9H-purin-6-yl)pyridin-2-ylamino)-4-methylphenyl)-5-methoxy-4-(trifluoromethyl)picolinamide]
13 | < 20 | Cc1ccc(NC(=O)c2cccc(C(F)(F)F)c2)cc1Nc1ncccc1-c1ncnc2[nH]cnc12 [IA-145, N-(3-((3-(9H-purin-6-yl)pyridin-2-yl)amino)-4-methylphenyl)-3-(trifluoromethyl)benzamide]
14 | ≥ 500 | Cc1ccc(NC(=O)CN2CCCN(C)CC2)cc1Nc1ncccc1-c1ncnc2[nH]cnc12 [IA-135, N-(3-((3-(9H-purin-6-yl)pyridin-2-yl)amino)-4-methylphenyl)-2-(4-methyl-1,4-diazepan-1-yl)acetamide]
15 | < 20 | Cc1ccc(NC(=O)c2cc(C(F)(F)F)c(F)cn2)cc1Nc1ncccc1-c1ncnc2[nH]cnc12 [IA-115, N-(3-((3-(9H-purin-6-yl)pyridin-2-yl)amino)-4-methylphenyl)-5-fluoro-4-(trifluoromethyl)picolinamide]
16 | 20 to 100 | Cc1ccc(NC(=O)c2cnc(C(F)(F)F)c(C#N)c2)cc1Nc1ncccc1-c1ncnc2[nH]cnc12 [Compound I-70, N-(3-((3-(9H-purin-6-yl)pyridin-2-yl)amino)-4-methylphenyl)-5-cyano-6-(trifluoromethyl)nicotinamide]
17 | 20 to 100 | Cc1ccc(NC(=O)C[C@H]2CCO[C@@H](C(F)(F)F)C2)cc1Nc1ncccc1-c1ncnc2[nH]cnc12 (single isomer, unassigned) [IA-146]
18 | ≥ 500 | Cc1ccc(NC(=O)CC2CCNCCO2)cc1Nc1ncccc1-c1ncnc2[nH]cnc12 (centres unmarked) [Compound I-83, N-(3-((3-(9H-purin-6-yl)pyridin-2-yl)amino)-4-methylphenyl)-2-(1,4-oxazepan-7-yl)acetamide]
19 | 20 to 100 | Cc1ccc(NC(=O)c2ccc(C(F)(F)F)c(Cl)c2)cc1Nc1ncccc1-c1ncnc2[nH]cnc12 [Compound I-33, N-(3-((3-(9H-purin-6-yl)pyridin-2-yl)amino)-4-methylphenyl)-3-chloro-4-(trifluoromethyl)benzamide]
20 | 20 to 100 | Cc1ncc(C(=O)Nc2cccc(C3(C#N)CC3)c2)cc1Nc1ncccc1-c1ncnc2[nH]cnc12 [Compound I-58, 5-((3-(9H-purin-6-yl)pyridin-2-yl)amino)-N-(3-(1-cyanocyclopropyl)phenyl)-6-methylnicotinamide]
21 | ≥ 500 | Cc1ccc(NC(=O)CN2CCCNCC2)cc1Nc1ncccc1-c1ncnc2[nH]cnc12 [IA-134, N-(3-((3-(9H-purin-6-yl)pyridin-2-yl)amino)-4-methylphenyl)-2-(1,4-diazepan-1-yl)acetamide]
22 | < 20 | Cc1ccc(NC(=O)C[C@@H]2CCC[C@H](C(F)(F)F)C2)cc1Nc1ncccc1-c1ncnc2[nH]cnc12 (single isomer, unassigned) [IA-138]
23 | 20 to 100 | Cc1ncc(NC(=O)c2ccnc(C3(C#N)CC3)c2)cc1Nc1ncccc1-c1ncnc2[nH]cnc12 [Compound I-54, N-(5-(3-(9H-purin-6-yl)pyridin-2-ylamino)-6-methylpyridin-3-yl)-2-(1-cyanocyclopropyl)isonicotinamide]
24 | 100 to 500 | Cc1ccc(NC(=O)C[C@H]2CCN[C@H](C(F)(F)F)C2)cc1Nc1ncccc1-c1ncnc2[nH]cnc12 (single isomer, unassigned) [IA-143]
25 | 20 to 100 | Cc1c(F)cc(NC(=O)c2cc(C(F)(F)F)ccn2)cc1Nc1ncccc1-c1ncnc2[nH]cnc12 [Compound I-29, N-(3-(3-(9H-purin-6-yl)pyridin-2-ylamino)-5-fluoro-4-methylphenyl)-4-(trifluoromethyl)picolinamide]
26 | 20 to 100 | O=C(Nc1ccc(Cl)c(Nc2ncccc2-c2ncnc3[nH]cnc23)c1)c1cc(C(F)(F)F)ccn1 [Compound I-21, N-(3-(3-(9H-purin-6-yl)pyridin-2-ylamino)-4-chlorophenyl)-4-(trifluoromethyl)picolinamide]
27 | < 20 | Cc1ccc(NC(=O)c2ccc(Cl)c(Cl)c2)cc1Nc1ncccc1-c1ncnc2[nH]cnc12 [Compound I-49, N-(3-(3-(9H-purin-6-yl)pyridin-2-ylamino)-4-methylphenyl)-3,4-dichlorobenzamide]
28 | 20 to 100 | Cc1ccc(C(=O)Nc2cc(C(F)(F)F)ccn2)cc1Nc1ncccc1-c1ncnc2[nH]cnc12 [Compound I-34, 3-((3-(9H-purin-6-yl)pyridin-2-yl)amino)-4-methyl-N-(4-(trifluoromethyl)pyridin-2-yl)benzamide]
29 | < 20 | Cc1ccc(NC(=O)c2ccnc(C3(C#N)CCC3)c2)cc1Nc1ncccc1-c1ncnc2[nH]cnc12 [Compound I-66, N-(3-((3-(9H-purin-6-yl)pyridin-2-yl)amino)-4-methylphenyl)-2-(1-cyanocyclobutyl)isonicotinamide]
